The target of the test is T1, Beta-adrenergic receptor kinase 1 (Homo sapiens, UniProt P25098).
T1 sequence (P25098 whole entry): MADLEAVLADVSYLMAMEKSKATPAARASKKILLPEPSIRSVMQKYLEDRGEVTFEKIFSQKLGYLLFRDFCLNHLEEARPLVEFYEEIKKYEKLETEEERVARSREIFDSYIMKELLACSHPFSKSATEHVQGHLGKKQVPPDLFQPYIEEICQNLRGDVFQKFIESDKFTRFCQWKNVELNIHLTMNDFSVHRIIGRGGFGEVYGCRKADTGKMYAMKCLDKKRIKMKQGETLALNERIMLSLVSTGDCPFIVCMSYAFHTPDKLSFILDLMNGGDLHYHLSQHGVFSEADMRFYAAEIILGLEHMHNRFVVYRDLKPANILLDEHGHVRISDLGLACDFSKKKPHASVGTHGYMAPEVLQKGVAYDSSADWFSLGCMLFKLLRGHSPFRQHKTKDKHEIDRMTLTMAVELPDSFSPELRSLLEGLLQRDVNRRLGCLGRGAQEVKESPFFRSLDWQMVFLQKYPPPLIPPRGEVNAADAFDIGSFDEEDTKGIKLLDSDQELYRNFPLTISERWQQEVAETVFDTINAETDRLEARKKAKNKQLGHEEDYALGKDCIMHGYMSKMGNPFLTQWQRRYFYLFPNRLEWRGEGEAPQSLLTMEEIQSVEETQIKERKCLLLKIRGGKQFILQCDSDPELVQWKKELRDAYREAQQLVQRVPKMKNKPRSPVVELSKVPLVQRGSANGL
Briefly: aptamer displacement from bead-bound GRK2 – biochemical, cherry pick 1, bead flow cytometry, dose response (AID 504500).

Each structure is given as a SMILES string.

The term EC50 denotes the midpoint of the concentration-response curve. In the case of `C=c1[nH]n(-c2cccc(C(=O)O)c2)c(=O)c1=CC=Cc1ccco1` [SMR000113614], the concentration giving a half-maximal response (EC50) is 14.8 µM.

The values are drawn from BindingDB's records for doi:10.7270/Q2B56H72 (Nmmlsc, 2011).
